Measurements: patent US20250223268A1, “4-Methylsulfonylbenzamide Compound, Preparation Method, Herbicidal Composition And Use” (Jiangsu Flag Chemical Industry Co., Ltd., priority 2022, published 2025)

What was measured:
Assay in all cases: Greenhouse herbicidal activity assay, post-emergence
Format in all cases: in vivo
Settings in all cases: Post-emergence test, rate 150 g a.i./hm^2; grade by fresh weight inhibition rate
Eclipta prostrata = test system: Eclipta prostrata
Method in brief: (§1)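 Letter grades (A: ≥80% to 100%; C: ≥40% to <60%; E: <20%) express fresh weight inhibition recorded 14-21 days post-spray. Weeds were treated on the leaves once they reached 3-6 leaves in chamber-grown pots, allowed to dry naturally, then kept in the chamber.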

Echinochloa crusgalli = test system: Echinochloa crusgalli
Method in brief: as §1

Cyperus iria = test system: Cyperus iria
Method in brief: as §1

Digitaria sanguinalis = test system: Digitaria sanguinalis
Method in brief: as §1

Leptochloa chinensis = test system: Leptochloa chinensis
Method in brief: as §1

| SMILES | Control efficacy grade, Eclipta prostrata (Eclipta prostrata) | Control efficacy grade, Echinochloa crusgalli (Echinochloa crusgalli) | Control efficacy grade, Cyperus iria (Cyperus iria) | Control efficacy grade, Digitaria sanguinalis (Digitaria sanguinalis) | Control efficacy grade, Leptochloa chinensis (Leptochloa chinensis) |
| --- | --- | --- | --- | --- | --- |
| CC(C)[S+]([O-])c1c(S(C)(=O)=O)ccc(C(=O)Nc2nnco2)c1Cl (racemic) [Compound 3-273] | A (Fresh weight inhibition rate≥80% to 100%) | A (Fresh weight inhibition rate≥80% to 100%) | A (Fresh weight inhibition rate≥80% to 100%) | A (Fresh weight inhibition rate≥80% to 100%) | A (Fresh weight inhibition rate≥80% to 100%) |
| CCCC[S+]([O-])c1c(S(C)(=O)=O)ccc(C(=O)Nc2nnco2)c1Cl (racemic) [Compound 3-278] | A (Fresh weight inhibition rate≥80% to 100%) | A (Fresh weight inhibition rate≥80% to 100%) | A (Fresh weight inhibition rate≥80% to 100%) | A (Fresh weight inhibition rate≥80% to 100%) | A (Fresh weight inhibition rate≥80% to 100%) |
| CCC(C)Sc1c(S(C)(=O)=O)ccc(C(=O)Nc2nnco2)c1Cl (racemic) [Compound 3-282] | A (Fresh weight inhibition rate≥80% to 100%) | A (Fresh weight inhibition rate≥80% to 100%) | A (Fresh weight inhibition rate≥80% to 100%) | B (Fresh weight inhibition rate≥260% to <80%) | A (Fresh weight inhibition rate≥80% to 100%) |
| CS(=O)(=O)c1ccc(C(=O)Nc2nnco2)c(Cl)c1[S+]([O-])CC1CC1 (racemic) [Compound 3-299] | A (Fresh weight inhibition rate≥80% to 100%) | A (Fresh weight inhibition rate≥80% to 100%) | A (Fresh weight inhibition rate≥80% to 100%) | A (Fresh weight inhibition rate≥80% to 100%) | A (Fresh weight inhibition rate≥80% to 100%) |
| CS(=O)(=O)c1ccc(C(=O)Nc2nnco2)c(Cl)c1[S+]([O-])C1CC1 (racemic) [Compound 3-304] | A (Fresh weight inhibition rate≥80% to 100%) | A (Fresh weight inhibition rate≥80% to 100%) | A (Fresh weight inhibition rate≥80% to 100%) | A (Fresh weight inhibition rate≥80% to 100%) | A (Fresh weight inhibition rate≥80% to 100%) |
| CS(=O)(=O)c1ccc(C(=O)Nc2nnco2)c(Cl)c1[S+]([O-])C1CCC1 (racemic) [Compound 3-309] | A (Fresh weight inhibition rate≥80% to 100%) | A (Fresh weight inhibition rate≥80% to 100%) | A (Fresh weight inhibition rate≥80% to 100%) | A (Fresh weight inhibition rate≥80% to 100%) | A (Fresh weight inhibition rate≥80% to 100%) |
| CS(=O)(=O)c1ccc(C(=O)Nc2nnco2)c(Cl)c1[S+]([O-])C1CCCC1 (racemic) [Compound 3-314] | A (Fresh weight inhibition rate≥80% to 100%) | A (Fresh weight inhibition rate≥80% to 100%) | A (Fresh weight inhibition rate≥80% to 100%) | A (Fresh weight inhibition rate≥80% to 100%) | A (Fresh weight inhibition rate≥80% to 100%) |
| CS(=O)(=O)c1ccc(C(=O)Nc2nnco2)c(Cl)c1[S+]([O-])C1CCCCC1 (racemic) [Compound 3-319] | A (Fresh weight inhibition rate≥80% to 100%) | A (Fresh weight inhibition rate≥80% to 100%) | A (Fresh weight inhibition rate≥80% to 100%) | A (Fresh weight inhibition rate≥80% to 100%) | A (Fresh weight inhibition rate≥80% to 100%) |
| CS(=O)(=O)c1ccc(C(=O)Nc2nnco2)c(Cl)c1[S+]([O-])CC(F)(F)F (racemic) [Compound 3-324] | A (Fresh weight inhibition rate≥80% to 100%) | A (Fresh weight inhibition rate≥80% to 100%) | A (Fresh weight inhibition rate≥80% to 100%) | A (Fresh weight inhibition rate≥80% to 100%) | A (Fresh weight inhibition rate≥80% to 100%) |
| CS(=O)(=O)c1ccc(C(=O)Nc2nnco2)c(Cl)c1[S+]([O-])CC(F)F (racemic) [Compound 3-329] | A (Fresh weight inhibition rate≥80% to 100%) | A (Fresh weight inhibition rate≥80% to 100%) | A (Fresh weight inhibition rate≥80% to 100%) | A (Fresh weight inhibition rate≥80% to 100%) | A (Fresh weight inhibition rate≥80% to 100%) |
| C=CC[S+]([O-])c1c(S(C)(=O)=O)ccc(C(=O)Nc2nnco2)c1Cl (racemic) [Compound 3-339] | A (Fresh weight inhibition rate≥80% to 100%) | A (Fresh weight inhibition rate≥80% to 100%) | A (Fresh weight inhibition rate≥80% to 100%) | A (Fresh weight inhibition rate≥80% to 100%) | A (Fresh weight inhibition rate≥80% to 100%) |
| CS(=O)(=O)c1ccc(C(=O)Nc2nnco2)c(Cl)c1[S+]([O-])CCCl (racemic) [Compound 3-379] | A (Fresh weight inhibition rate≥80% to 100%) | A (Fresh weight inhibition rate≥80% to 100%) | A (Fresh weight inhibition rate≥80% to 100%) | A (Fresh weight inhibition rate≥80% to 100%) | A (Fresh weight inhibition rate≥80% to 100%) |
| CCC[S+]([O-])c1c(S(C)(=O)=O)ccc(C(=O)Nc2nnc(CC)o2)c1Cl (racemic) [Compound 3-384] | A (Fresh weight inhibition rate≥80% to 100%) | A (Fresh weight inhibition rate≥80% to 100%) | A (Fresh weight inhibition rate≥80% to 100%) | A (Fresh weight inhibition rate≥80% to 100%) | A (Fresh weight inhibition rate≥80% to 100%) |
| CCCC[S+]([O-])c1c(S(C)(=O)=O)ccc(C(=O)Nc2nnc(CC)o2)c1Cl (racemic) [Compound 3-394] | A (Fresh weight inhibition rate≥80% to 100%) | A (Fresh weight inhibition rate≥80% to 100%) | A (Fresh weight inhibition rate≥80% to 100%) | A (Fresh weight inhibition rate≥80% to 100%) | A (Fresh weight inhibition rate≥80% to 100%) |
| CCc1nnc(NC(=O)c2ccc(S(C)(=O)=O)c([S+]([O-])CC(C)C)c2Cl)o1 (racemic) [Compound 3-410] | A (Fresh weight inhibition rate≥80% to 100%) | C (Fresh weight inhibition rate≥40% to <60%) | A (Fresh weight inhibition rate≥80% to 100%) | A (Fresh weight inhibition rate≥80% to 100%) | A (Fresh weight inhibition rate≥80% to 100%) |
| CCc1nnc(NC(=O)c2ccc(S(C)(=O)=O)c([S+]([O-])CC3CC3)c2Cl)o1 (racemic) [Compound 3-415] | A (Fresh weight inhibition rate≥80% to 100%) | A (Fresh weight inhibition rate≥80% to 100%) | A (Fresh weight inhibition rate≥80% to 100%) | A (Fresh weight inhibition rate≥80% to 100%) | A (Fresh weight inhibition rate≥80% to 100%) |
| CCc1nnc(NC(=O)c2ccc(S(C)(=O)=O)c([S+]([O-])C3CC3)c2Cl)o1 (racemic) [Compound 3-420] | A (Fresh weight inhibition rate≥80% to 100%) | A (Fresh weight inhibition rate≥80% to 100%) | A (Fresh weight inhibition rate≥80% to 100%) | A (Fresh weight inhibition rate≥80% to 100%) | A (Fresh weight inhibition rate≥80% to 100%) |
| CCc1nnc(NC(=O)c2ccc(S(C)(=O)=O)c([S+]([O-])C3CCC3)c2Cl)o1 (racemic) [Compound 3-425] | A (Fresh weight inhibition rate≥80% to 100%) | A (Fresh weight inhibition rate≥80% to 100%) | A (Fresh weight inhibition rate≥80% to 100%) | A (Fresh weight inhibition rate≥80% to 100%) | A (Fresh weight inhibition rate≥80% to 100%) |
| CCc1nnc(NC(=O)c2ccc(S(C)(=O)=O)c([S+]([O-])C3CCCC3)c2Cl)o1 (racemic) [Compound 3-430] | A (Fresh weight inhibition rate≥80% to 100%) | A (Fresh weight inhibition rate≥80% to 100%) | A (Fresh weight inhibition rate≥80% to 100%) | A (Fresh weight inhibition rate≥80% to 100%) | A (Fresh weight inhibition rate≥80% to 100%) |
